{"source": "patent US6485953B1", "about": "“Enzyme capable of hydorlyzing plaque, microorganism producing the same, and a composition comprising the same” (Lifenza Co. Ltd., priority 1999, dated 2002)", "key": {"[1]": {"test_system": "dextranase activity of DXAMase", "assay": "Stability test: dextranase activity of DXAMase in presence of enzyme inhibitors and mouthwash chemicals", "assay_type": "biochemical, Lipomyces starkeyi KSM 22", "procedure": "Dextranase activity is determined by measuring the amount of isomaltose produced by the reaction of an enzyme solution in a buffer solution containing 2% dextran for 15 min at 37° C. Dextranase 1 IU is defined as the amount of the enzyme that produces 1 μmol of isomaltose when reaction is carried out by using dextran as a substrate for 1 min at 37° C.\n(§1) To test the stabilization of dextranase and amylase activities of DXAMase by chemicals comprising mouthwash solution, the enzyme activity was measured in the presence of the enzyme inhibitors and chemicals in the mouthwash solutions in Table 2. In 1 mL of each chemical solution, 5 IU of DXAMase was added and reacted for 5 min at 37° C. Reaction was further carried out by adding 2% dextran or starch of an equal volume."}, "[2]": {"test_system": "amylase activity of DXAMase", "assay": "Stability test: amylase activity of DXAMase in presence of enzyme inhibitors and mouthwash chemicals", "assay_type": "biochemical, Lipomyces starkeyi KSM 22", "procedure": "Amylase activity is measured by reacting the enzyme solution in a buffer solution containing 2% starch for 15 min at 37° C.\nas §1"}, "[3]": {"conditions": "inhibitor concentration 10 mM, 5 IU DXAMase, 5 min at 37° C."}}}
{"smiles": "[H]/N=C(\\N/C(=N/[H])NCCCCCCNC(=N)NC(=N)Nc1ccc(Cl)cc1)Nc1ccc(Cl)cc1", "note": "[Chlorhexydine]", "values": [{"measurement": "effect on enzymatic activity of DXAMase (dextranase and amylase), in words", "setting": "[1]; 5 IU DXAMase in 1 mL chemical solution, 5 min at 37° C.", "result": "did not decrease"}, {"measurement": "Relative activity (%) Dextranase", "setting": "[1]; inhibitor concentration 0.01%", "result": 98, "unit": "%"}, {"measurement": "Relative activity (%) Dextranase", "setting": "[1]; inhibitor concentration 0.02%", "result": 98, "unit": "%"}, {"measurement": "Relative activity (%) Dextranase", "setting": "[1]; inhibitor concentration 0.05%", "result": 97, "unit": "%"}, {"measurement": "Relative activity (%) Dextranase", "setting": "[1]; inhibitor concentration 0.1%", "result": 93, "unit": "%"}, {"measurement": "Relative activity (%) Amylase", "setting": "[2]; inhibitor concentration 0.01%", "result": 98, "unit": "%"}, {"measurement": "Relative activity (%) Amylase", "setting": "[2]; inhibitor concentration 0.02%", "result": 97, "unit": "%"}, {"measurement": "Relative activity (%) Amylase", "setting": "[2]; inhibitor concentration 0.05%", "result": 97, "unit": "%"}, {"measurement": "Relative activity (%) Amylase", "setting": "[2]; inhibitor concentration 0.1%", "result": 96, "unit": "%"}]}
{"smiles": "O=C(O)CN(CCN(CC(=O)O)CC(=O)O)CC(=O)O", "note": "[EDTA]", "values": [{"measurement": "Relative activity (%) Dextranase", "setting": "[1]; [3]", "result": 100, "unit": "%"}, {"measurement": "Relative activity (%) Amylase", "setting": "[2]; [3]", "result": 100, "unit": "%"}]}
{"smiles": "CCO", "note": "[Ethanol]", "values": [{"measurement": "Relative activity (%) Dextranase", "setting": "[1]; inhibitor concentration 1%", "result": 99, "unit": "%"}, {"measurement": "Relative activity (%) Dextranase", "setting": "[1]; inhibitor concentration 5%", "result": 98, "unit": "%"}, {"measurement": "Relative activity (%) Dextranase", "setting": "[1]; inhibitor concentration 10%", "result": 98, "unit": "%"}, {"measurement": "Relative activity (%) Dextranase", "setting": "[1]; inhibitor concentration 20%", "result": 97, "unit": "%"}, {"measurement": "Relative activity (%) Amylase", "setting": "[2]; inhibitor concentration 1%", "result": 100, "unit": "%"}, {"measurement": "Relative activity (%) Amylase", "setting": "[2]; inhibitor concentration 5%", "result": 98, "unit": "%"}, {"measurement": "Relative activity (%) Amylase", "setting": "[2]; inhibitor concentration 10%", "result": 97, "unit": "%"}, {"measurement": "Relative activity (%) Amylase", "setting": "[2]; inhibitor concentration 20%", "result": 97, "unit": "%"}]}
{"smiles": "F", "note": "[Fluoride]", "values": [{"measurement": "Relative activity (%) Dextranase", "setting": "[1]; inhibitor concentration 0.05%", "result": 94, "unit": "%"}, {"measurement": "Relative activity (%) Amylase", "setting": "[2]; inhibitor concentration 0.05%", "result": 91, "unit": "%"}]}
{"smiles": "CC(O)CO", "note": "(centres unmarked) [Propylene glycol]", "values": [{"measurement": "Relative activity (%) Dextranase", "setting": "[1]; inhibitor concentration 1%", "result": 100, "unit": "%"}, {"measurement": "Relative activity (%) Amylase", "setting": "[2]; inhibitor concentration 1%", "result": 100, "unit": "%"}]}
{"smiles": "CCCCCCCCCCCCOS(=O)(=O)[O-].[Na+]", "note": "[SDS]", "values": [{"measurement": "Relative activity (%) Dextranase", "setting": "[1]; inhibitor concentration 0.05%", "result": 91, "unit": "%"}, {"measurement": "Relative activity (%) Dextranase", "setting": "[1]; inhibitor concentration 0.5%", "result": 85, "unit": "%"}, {"measurement": "Relative activity (%) Amylase", "setting": "[2]; inhibitor concentration 0.05%", "result": 92, "unit": "%"}, {"measurement": "Relative activity (%) Amylase", "setting": "[2]; inhibitor concentration 0.5%", "result": 68, "unit": "%"}]}
{"smiles": "O=C([O-])c1ccccc1.[Na+]", "note": "[Sodium benzoate]", "values": [{"measurement": "Relative activity (%) Dextranase", "setting": "[1]; inhibitor concentration 1%", "result": 100, "unit": "%"}, {"measurement": "Relative activity (%) Amylase", "setting": "[2]; inhibitor concentration 1%", "result": 100, "unit": "%"}]}
